Reference: patent publication US20140107109A1, “AMINO-DIHYDROTHIAZINE AND AMINO-DIOXIDO DIHYDROTHIAZINE COMPOUNDS AS BETA-SECRETASE ANTAGONISTS AND METHODS OF USE” (Amgen Inc., priority 2012, published 2014)

Tests used:
[1] = test system: Aβ40 in conditioned medium of cells stably expressing Amyloid Precursor Protein (APP); experiment: In vitro BACE cell-based assay (HEK cell assay), Aβ40 sandwich ELISA; conditions: Homo sapiens, HEK293
Outline: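 Aβ40 in conditioned medium was quantified by time-resolved fluorescence sandwich ELISA (pAb40 capture 3 h at 4 °C, biotin-6E10 detection 2 h at 4 °C) after 24 h compound exposure of APP-expressing cells. Doses spanned 10 points from 100 μM or 10 μM top, 0.1% DMSO; IC50 was derived from percent of control.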

[2] = biological target: Beta Secretase enzyme (BACE1) (Homo sapiens, UniProt P56817); experiment: In vitro enzymatic BACE FRET assay; assay type: biochemical; conditions: average IC50, enzyme assay; read-out: BACE1 FRET assay IC50
Outline: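 Readout: dequenched fluorescence (ex 488 nm/[…]) after neutralizing with Tris buffer. Reactions, begun by adding 50 nM quenched peptide substrate spanning the BACE cleavage site, were incubated one hour at pH 4.2 in 0.05 M acetate with 100 uM genapol and 10% final DMSO.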

Cathepsin D (Cat D) = biological target: T1, Cathepsin D (Cat D) (Homo sapiens, UniProt P07339); experiment: In vitro enzymatic Cathepsin D (Cat D) FRET assay; assay type: biochemical; conditions: read-out: CatD IC50
T1 construct: Recombinant Cat D was expressed in CHO cells; made in house; host or cells: CHO cells
Outline: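 FRET read-out: a fluorophore/quencher-labelled peptide substrate is cleaved by 9 nM Cat D (recombinant, CHO-expressed) following a one-hour preincubation with inhibitor dilutions in DMSO. Tris buffer added to neutralize pH ends the reaction before fluorescence measurement.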

T1 sequence (P07339 65-412, species assumed): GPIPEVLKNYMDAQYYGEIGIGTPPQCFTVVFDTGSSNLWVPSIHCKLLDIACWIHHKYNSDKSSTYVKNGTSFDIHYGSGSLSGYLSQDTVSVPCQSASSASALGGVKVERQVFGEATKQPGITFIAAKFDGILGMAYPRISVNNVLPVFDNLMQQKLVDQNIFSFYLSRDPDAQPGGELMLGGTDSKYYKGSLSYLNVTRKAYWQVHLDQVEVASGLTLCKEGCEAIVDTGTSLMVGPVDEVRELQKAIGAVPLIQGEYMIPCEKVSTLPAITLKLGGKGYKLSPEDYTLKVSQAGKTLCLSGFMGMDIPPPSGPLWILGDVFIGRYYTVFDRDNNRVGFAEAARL
Chain of Beta Secretase enzyme (BACE1) (P56817 46-501): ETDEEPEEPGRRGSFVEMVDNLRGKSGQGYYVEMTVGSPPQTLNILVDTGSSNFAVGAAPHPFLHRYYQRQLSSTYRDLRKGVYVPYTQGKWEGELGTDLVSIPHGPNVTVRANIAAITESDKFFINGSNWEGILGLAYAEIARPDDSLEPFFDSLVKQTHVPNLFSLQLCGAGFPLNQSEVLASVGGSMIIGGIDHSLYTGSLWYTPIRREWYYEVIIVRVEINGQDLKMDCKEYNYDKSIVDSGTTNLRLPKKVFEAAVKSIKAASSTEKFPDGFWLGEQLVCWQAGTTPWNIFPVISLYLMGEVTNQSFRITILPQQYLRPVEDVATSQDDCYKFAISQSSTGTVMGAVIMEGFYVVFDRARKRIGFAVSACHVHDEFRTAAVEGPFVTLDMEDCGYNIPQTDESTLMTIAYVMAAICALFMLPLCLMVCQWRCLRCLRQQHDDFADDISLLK

| SMILES | IC50 ([1]; average IC50, cell assay) [µM] | IC50 [2] [µM] | IC50 (Cathepsin D (Cat D)) [µM] | IC50 ([1]; average IC50, HEK cell assay) [µM] |
| --- | --- | --- | --- | --- |
| CC1(C)C(N)=N[C@](C)(c2cc(Oc3ccc(C(F)(F)F)cn3)ccc2F)CS1(=O)=O [Example 279, (5R)-5-(2-fluoro-5-((5-(trifluoromethyl)-2-pyridinyl)oxy)phenyl)-2,2,5-trimethyl-5,6-dihydro-2H-1,4-thiazin-3-amine 1,1-dioxide] | 2.09 | 5.6 | 188 | – |
| CC1(C)C(N)=N[C@](C)(c2cc(Oc3cc(C#N)ccn3)ccc2F)CS1(=O)=O [Example 280, 2-(3-((3R)-5-amino-3,6,6-trimethyl-1,1-dioxido-3,6-dihydro-2H-1,4-thiazin-3-yl)-4-fluorophenoxy)-4-pyridinecarbonitrile] | 0.0521 | 0.039 | 395 | – |
| CC1(C)C(N)=N[C@](C)(c2cc(Oc3ccc(F)c(C(F)(F)F)n3)ccc2F)CS1(=O)=O [Example 284, (5R)-5-(2-fluoro-5-((5-fluoro-6-(trifluoromethyl)-2-pyridinyl)oxy)phenyl)-2,2,5-trimethyl-5,6-dihydro-2H-1,4-thiazin-3-amine 1,1-dioxide] | 1.64 | 0.769 | 79.1 | – |
| CC1(C)C(N)=N[C@](C)(c2cc(Oc3cc(Br)ccn3)ccc2F)CS1(=O)=O [Example 285, (5R)-5-(5-((4-bromo-2-pyridinyl)oxy)-2-fluorophenyl)-2,2,5-trimethyl-5,6-dihydro-2H-1,4-thiazin-3-amine 1,1-dioxide] | 0.0918 | 0.0375 | 374 | – |
| CC#Cc1ccnc(Oc2ccc(F)c([C@]3(C)CS(=O)(=O)C(C)(C)C(N)=N3)c2)c1 [Example 286, (5R)-5-(2-fluoro-5-((4-(1-propyn-1-yl)-2-pyridinyl)oxy)phenyl)-2,2,5-trimethyl-5,6-dihydro-2H-1,4-thiazin-3-amine 1,1-dioxide] | 0.787 | 0.228 | 119 | – |
| CC1(C)C(N)=N[C@](C)(c2cc(Oc3cc(-c4ccccc4)ccn3)ccc2F)CS1(=O)=O [Example 289, (5R)-5-(2-fluoro-5-((4-phenyl-2-pyridinyl)oxy)phenyl)-2,2,5-trimethyl-5,6-dihydro-2H-1,4-thiazin-3-amine 1,1-dioxide] | 0.568 | 0.0509 | 92.7 | – |
| CC1(C)C(N)=N[C@](C)(c2cc(Oc3nccc(-c4ccccc4)c3C#N)ccc2F)CS1(=O)=O [Example 293, 2-(3-((3R)-5-amino-3,6,6-trimethyl-1,1-dioxido-3,6-dihydro-2H-1,4-thiazin-3-yl)-4-fluorophenoxy)-4-phenyl-3-pyridinecarbonitrile] | – | 0.836 | 50.9 | 0.68 |
| Cc1cc(C)c(C#N)c(Oc2ccc(F)c([C@]3(C)CS(=O)(=O)C(C)(C)C(N)=N3)c2)n1 [Example 295, 2-(3-((3R)-5-amino-3,6,6-trimethyl-1,1-dioxido-3,6-dihydro-2H-1,4-thiazin-3-yl)-4-fluorophenoxy)-4,6-dimethyl-3-pyridinecarbonitrile] | – | 2.64 | 1690 | 2.48 |
| CC1(C)C(N)=N[C@](C)(c2cc(Oc3ncc(Cl)cc3Cl)ccc2F)CS1(=O)=O [Example 299, (5R)-5-(5-((3,5-dichloro-2-pyridinyl)oxy)-2-fluorophenyl)-2,2,5-trimethyl-5,6-dihydro-2H-1,4-thiazin-3-amine 1,1-dioxide] | – | 0.174 | 82.4 | 0.796 |
| COc1cnc2c(Oc3ccc(F)c([C@]4(C)CS(=O)(=O)C(C)(C)C(N)=N4)c3)nccc2n1 [Example 303, (5R)-5-(2-fluoro-5-((2-methoxypyrido[3,4-b]pyrazin-5-yl)oxy)phenyl)-2,2,5-trimethyl-5,6-dihydro-2H-1,4-thiazin-3-amine 1,1-dioxide] | – | 1.22 | 1000 | 2.54 |

The remaining compounds from weak to strong by IC50 [2], led by results:

| IC50 ([1]; average IC50, cell assay) [µM] | IC50 [2] [µM] | IC50 (Cathepsin D (Cat D)) [µM] | IC50 ([1]; average IC50, HEK cell assay) [µM] | SMILES |
| --- | --- | --- | --- | --- |
| – | 3.49 | 241 | 2.87 | Cc1nc2c(Oc3ccc(F)c([C@]4(C)CS(=O)(=O)C(C)(C)C(N)=N4)c3)nccc2s1 [Example 302, (5R)-5-(2-fluoro-5-((2-methyl[1,3]thiazolo[4,5-c]pyridin-4-yl)oxy)phenyl)-2,2,5-trimethyl-5,6-dihydro-2H-1,4-thiazin-3-amine 1,1-dioxide] |
| – | 2.01 | 219 | 2.23 | CC1(C)C(N)=N[C@](C)(c2cc(Oc3ncc(C(N)=O)c4sccc34)ccc2F)CS1(=O)=O [Example 292, 4-(3-((3R)-5-amino-3,6,6-trimethyl-1,1-dioxido-3,6-dihydro-2H-1,4-thiazin-3-yl)-4-fluorophenoxy)thieno[3,2-c]pyridine-7-carboxamide] |
| 1.15 | 1.56 | 227 | – | CC1(C)C(N)=N[C@](C)(c2cc(Oc3ccc(C#N)cn3)ccc2F)CS1(=O)=O [Example 282, 6-(3-((3R)-5-amino-3,6,6-trimethyl-1,1-dioxido-3,6-dihydro-2H-1,4-thiazin-3-yl)-4-fluorophenoxy)-3-pyridinecarbonitrile] |
| – | 1.05 | 202 | 1.14 | CC1(C)C(N)=N[C@](C)(c2cc(Oc3nccc4ccccc34)ccc2F)CS1(=O)=O [Example 294, (5R)-5-(2-fluoro-5-(1-isoquinolinyloxy)phenyl)-2,2,5-trimethyl-5,6-dihydro-2H-1,4-thiazin-3-amine 1,1-dioxide] |
| – | 0.897 | 717 | 1.18 | CC1(C)C(N)=N[C@](C)(c2cc(Oc3ncc(C(N)=O)cc3F)ccc2F)CS1(=O)=O [Example 300, 6-(3-((3R)-5-amino-3,6,6-trimethyl 1,1-dioxido-3,6-dihydro-2H-1,4-thiazin-3-yl)-4-fluorophenoxy)-5-fluoro-3-pyridinecarboxamide] |
| 1.12 | 0.807 | 61.2 | – | CC1(C)C(N)=N[C@](C)(c2cc(Oc3cc(-c4ccc(Cl)cn4)ccn3)ccc2F)CS1(=O)=O [Example 281, (5R)-5-(5-((5-chloro-2,4′-bipyridin-2′-yl)oxy)-2-fluorophenyl)-2,2,5-trimethyl-5,6-dihydro-2H-1,4-thiazin-3-amine 1,1-dioxide] |
| 0.914 | 0.517 | 242 | – | CC1(C)C(N)=N[C@](C)(c2cc(Oc3nccc4ccsc34)ccc2F)CS1(=O)=O [Example 291, (5R)-5-(2-fluoro-5-(thieno[2,3-c]pyridin-7-yloxy)phenyl)-2,2,5-trimethyl-5,6-dihydro-2H-1,4-thiazin-3-amine 1,1-dioxide] |
| 0.359 | 0.341 | 147 | – | CC1(C)C(N)=N[C@](C)(c2cc(Oc3ncccc3C(F)(F)F)ccc2F)CS1(=O)=O [Example 278, (5R)-5-(2-fluoro-5-((3-(trifluoromethyl)-2-pyridinyl)oxy)phenyl)-2,2,5-trimethyl-5,6-dihydro-2H-1,4-thiazin-3-amine 1,1-dioxide] |
| 0.318 | 0.328 | 826 | – | CC1(C)C(N)=N[C@](C)(c2cc(Oc3cc(-c4ccncc4)ccn3)ccc2F)CS1(=O)=O [Example 290, (5R)-5-(5-(4,4′-bipyridin-2-yloxy)-2-fluorophenyl)-2,2,5-trimethyl-5,6-dihydro-2H-1,4-thiazin-3-amine 1,1-dioxide] |
| – | 0.263 | 232 | 0.515 | Cc1ccc(C#N)c(Oc2ccc(F)c([C@]3(C)CS(=O)(=O)C(C)(C)C(N)=N3)c2)n1 [Example 296, 2-(3-((3R)-5-amino-3,6,6-trimethyl-1,1-dioxido-3,6-dihydro-2H-1,4-thiazin-3-yl)-4-fluorophenoxy)-6-methyl-3-pyridinecarbonitrile] |
| – | 0.202 | 975 | 0.219 | COc1cccnc1Oc1ccc(F)c([C@]2(C)CS(=O)(=O)C(C)(C)C(N)=N2)c1 [Example 297, (5R)-5-(2-fluoro-5-((3-methoxy-2-pyridinyl)oxy)phenyl)-2,2,5-trimethyl-5,6-dihydro-2H-1,4-thiazin-3-amine 1,1-dioxide] |
| – | 0.127 | 282 | 0.198 | CC1(C)C(N)=N[C@](C)(c2cc(Oc3nccc4cc(Cl)cnc34)ccc2F)CS1(=O)=O [Example 304, (5R)-5-(5-((3-chloro-1,7-naphthyridin-8-yl)oxy)-2-fluorophenyl)-2,2,5-trimethyl-5,6-dihydro-2H-1,4-thiazin-3-amine 1,1-dioxide] |
| – | 0.106 | 547 | 0.737 | Cc1cc(C(F)(F)F)cc(Oc2ccc(F)c([C@]3(C)CS(=O)(=O)C(C)(C)C(N)=N3)c2)n1 [Example 298, (5R)-5-(2-fluoro-5-((6-methyl-4-(trifluoromethyl)-2-pyridinyl)oxy)phenyl)-2,2,5-trimethyl-5,6-dihydro-2H-1,4-thiazin-3-amine 1,1-dioxide] |
| 0.0828 | 0.0919 | 12.9 | – | CC1(C)C(N)=N[C@](C)(c2cc(Oc3cccc(C#N)n3)ccc2F)CS1(=O)=O [Example 283, 6-(3-((3R)-5-amino-3,6,6-trimethyl-1,1-dioxido-3,6-dihydro-2H-1,4-thiazin-3-yl)-4-fluorophenoxy)-2-pyridinecarbonitrile] |
